One experiment deals with pentosidine. As to the kind of experiment: Pentosidine formation inhibiting effect in plasma of hemodialysis patients. The experiment is classed as biochemical, human. Particulars: plasma from hemodialysis patients, final concentration 0.8, 2.0, 5.0 mM, 37° C. for one week; compared to pyridoxamine as positive control. On the procedure:
Fresh heparinized plasma samples were obtained after informed consent from hemodialysis patients prior to the dialysis session, and filtrated and sterilized. To the plasma (450 μL), there was added the solution of TM-2002 in dimethylsurphoxide (50 μL) (final concentration: 0.8, 2.0, 5.0 mM) incubated at 37° C. for one week. Then, the amount of pentosidine was measured.
Measurement of the amount of pentosidine was made as follows: to each incubated sample (50 μL) was added an equal volume of 10% trichloroacetic acid, followed by centrifugation at 5000 g for 5 minutes; after removal of the supernatant, the pellet was washed by 5% trichloroacetic acid (300 μL); the pellet was dried under reduced pressure and then subjected to hydrolysis in 6N HCl solution (100 μL) at 110° C. under nitrogen atmosphere for 16 hours; to the hydrolysate, 5N NaOH (100 μL) and 0.5 M phosphate buffer (pH 7.4) (200 μL) were added, followed by filtration through a porefilter with a pore size of 0.5 μm and dilution with PBS. The concentration of free pentosidine was determined by reversed-phase HPLC using a fluorescence detector (Miyata, T. et al.: Proc. Natl. Acad. Sci. USA, Vol. 93, p. 2353-2358, 1996). The effluent was monitored at 335/385 nm of excitation/emission wavelength. Synthetic pentosidine was used as the standard. The detection limit of pentosidine was 0.1 pmol/mg protein. […]

Experiment [1] has as its system rat carotid balloon injury model. In words: Vascular endothelial thickening inhibiting effect in rat carotid balloon injury model. The format is in vivo. The conditions noted are these: oral 50 mg/kg twice daily (hydrochloride), 15 days, aminoguanidine hydrochloride 45 mg/kg twice daily as positive control. On the procedure: vascular endothelial thickening inhibiting effect in rat carotid balloon injury model, which is post-vasodilatory operation restenosis model.
TM-2002 was suspended in sodium carboxymethylcellulose aqueous solution (CMC) (0.5%) using mortar and prepared to the concentration of 12.5 mg/mL using measuring cylinder.
Aminoguanidine hydrochloride (Sigma) was used as positive control, suspended in CMC aqueous solution (0.5%) using mortar in the same manner, and prepare to the concentration of 11.25 mg/mL using measuring cylinder. Each preparation was formed when use it to administer orally coercively using disposable injection and oral sonde with suspending. […]
While testing, the alive and the condition of wound were observed everyday. The body weight was measured once a day from the day before injury to 14 day after balloon injury. The dose of each individuals were calculated by their body weight.
The blood samples were obtained from abdomen vena cava under anesthesia by ether on 15 day after balloon injury. […] The area of intravascular lumen, the area surrounded by internal elastic lamina and the area surrounded by external elastic lamina was calculated using image analyzer (VM-30, Olympus photology).
For each sections (3 region), the area of neointimal, media and neointimal/media rate of blood vessel was calculated from the measured area. […]

As for `Cc1ncc2c(c1O)C(c1c(C)nn(-c3ccccc3)c1O)OC2` (centres unmarked) [compound 68, 1-(5-hydroxy-3-methyl-1-phenyl-1H-pyrazol-4-yl)-6-methyl-1,3-dihydro-furo[3,4-c]pyridin-7-ol], in the experiment with pentosidine, the “pentosidine formation inhibiting effect” value was “inhibits significantly pentosidine formation compared to pyridoxamine”. Moreover, the “intimal thickening inhibiting effect” value in experiment [1] is recorded as “intimal thickening inhibiting effect equal to aminoguanidine group”.
